According to ChEMBL document CHEMBL3217498, “Structure and antimicrobial properties of multivalent short peptides” (Medchemcomm, 2011):
Converted amounts (≈) assume the structure as drawn. The source made the active and inactive calls. The calls are words filed in the database; no cut-off is given here. Non-standard residues stand in square brackets, D forms with d. Residues, ends and D or L forms follow the SMILES beside them. Groups on a side chain read outwards from the residue. *: point of attachment. Lys(α,ε-(ArgTrp)2) = N=C(N)NCCC[C@H](N)C(=O)N[C@@H](Cc1c[nH]c2ccccc12)C(=O)NCCCC[C@H](NC(=O)[C@H](Cc1c[nH]c2ccccc12)NC(=O)[C@@H](N)CCCNC(=N)N)C(=O)*; βAla = NCCC(=O)O

How the values were obtained:
[1] = system: Acinetobacter baumannii; test: Antibacterial activity against multidrug-resistant Acinetobacter baumannii ATCC BAA-747 assessed as growth inhibition measured over 400 generation period by standard broth microdilution assay relative to 50% growth inhibition after first day; assay type: functional
[2] = Induction of hemolysis in sheep erythrocytes after 60 mins by spectrophotometer analysis; assay type: cell-based, Ovis aries, Erythrocyte; details: read-out: HD50
[3] = system: Acinetobacter baumannii; test: Antibacterial activity against multidrug-resistant Acinetobacter baumannii ATCC BAA-747 assessed as growth inhibition after 18 hrs by standard broth microdilution assay; assay type: functional, organism-based; details: ATCC BAA-747, 18 h
[4] = system: Escherichia coli; test: Antibacterial activity against ampicillin and streptomycin-resistant Escherichia coli D31 assessed as growth inhibition after 18 hrs by standard broth microdilution assay; assay type: functional, organism-based; details: D31, 18 h
[5] = system: Staphylococcus aureus; test: Antibacterial activity against multidrug-resistant Staphylococcus aureus ATCC BAA-44 assessed as growth inhibition after 18 hrs by standard broth microdilution assay; assay type: functional, organism-based; details: ATCC BAA-44, 18 h
[6] = system: Escherichia coli; test: Antibacterial activity against ampicillin and streptomycin-resistant Escherichia coli D31 assessed as growth inhibition measured over 400 generation period by standard broth microdilution assay relative to 50% growth inhibition after first day; assay type: functional
[7] = system: Staphylococcus aureus; test: Antibacterial activity against multidrug-resistant Staphylococcus aureus ATCC BAA-44 assessed as growth inhibition measured over 400 generation period by standard broth microdilution assay; assay type: functional, organism-based
[8] = system: Escherichia coli; test: Antibacterial activity against ampicillin and streptomycin-resistant Escherichia coli D31 assessed as growth inhibition measured over 400 generation period by standard broth microdilution assay; assay type: functional, organism-based
[9] = system: Acinetobacter baumannii; test: Antibacterial activity against multidrug-resistant Acinetobacter baumannii ATCC BAA-747 assessed as growth inhibition measured over 400 generation period by standard broth microdilution assay; assay type: functional, organism-based
[10] = system: Staphylococcus aureus; test: Antibacterial activity against multidrug-resistant Staphylococcus aureus ATCC BAA-44 assessed as growth inhibition measured over 400 generation period by standard broth microdilution assay relative to 50% growth inhibition after first day; assay type: functional
[11] = Ratio of compound hemolytic index to indolicidin hemolytic index for ratio of HD50 for sheep erythrocytes to IC50 for Escherichia coli D31
[12] = Ratio of compound hemolytic index to indolicidin hemolytic index for ratio of HD50 for sheep erythrocytes to IC50 for Staphylococcus aureus ATCC BAA-44

Compound	HC50 at 1 h [2] [µg/mL]	IC50 [3] [µg/mL]	IC50 [4] [µg/mL]	IC50 [5] [µg/mL]	also measured
O=C(O)c1cn(C2CC2)c2cc(N3CCNCC3)c(F)cc2c1=O [CIPROFLOXACIN]	–	–	–	–	fold change (FC) [1]: 43
NCCCC[C@H](N)C(=O)N[C@@H](Cc1ccccc1)C(=O)NCCCC[C@H](NC(=O)[C@H](Cc1ccccc1)NC(=O)[C@@H](N)CCCCN)C(=O)NCCCC[C@H](NC(=O)[C@H](CCCCNC(=O)[C@H](Cc1ccccc1)NC(=O)[C@@H](N)CCCCN)NC(=O)[C@H](Cc1ccccc1)NC(=O)[C@@H](N)CCCCN)C(=O)NCCC(N)=O	2500	175 (≈ 111 µM)	77 (≈ 48.9 µM)	145 (≈ 92.1 µM)	–
GENTAMICIN	–	–	–	–	fold change (FC) [1]: 8; fold change (FC) [6]: 13
N=C(N)NCCC[C@H](N)C(=O)N[C@@H](Cc1ccc(O)cc1)C(=O)NCCCC[C@H](NC(=O)[C@H](Cc1ccc(O)cc1)NC(=O)[C@@H](N)CCCNC(=N)N)C(=O)NCCCC[C@H](NC(=O)[C@H](CCCCNC(=O)[C@H](Cc1ccc(O)cc1)NC(=O)[C@@H](N)CCCNC(=N)N)NC(=O)[C@H](Cc1ccc(O)cc1)NC(=O)[C@@H](N)CCCNC(=N)N)C(=O)NCCC(N)=O	2150	193 (≈ 110 µM)	12.6 (≈ 7.2 µM)	45.7 (≈ 26.1 µM)	–
N=C(N)NCCC[C@H](NC(=O)[C@H](Cc1c[nH]c2ccccc12)NC(=O)[C@H](CCCNC(=N)N)NC(=O)[C@H](Cc1c[nH]c2ccccc12)NC(=O)[C@H](CCCNC(=N)N)NC(=O)[C@H](Cc1c[nH]c2ccccc12)NC(=O)[C@@H](N)CCCNC(=N)N)C(=O)N[C@@H](Cc1c[nH]c2ccccc12)C(=O)O (H-RWRWRWRW-OH)	–	–	–	–	growth inhibition (GI) [7]: Active; growth inhibition (GI) [8]: Active; growth inhibition (GI) [9]: Active
NCCCC[C@H](N)C(=O)N[C@@H](Cc1c[nH]c2ccccc12)C(=O)NCCCC[C@H](NC(=O)[C@H](Cc1c[nH]c2ccccc12)NC(=O)[C@@H](N)CCCCN)C(=O)NCCCC[C@H](NC(=O)[C@H](CCCCNC(=O)[C@H](Cc1c[nH]c2ccccc12)NC(=O)[C@@H](N)CCCCN)NC(=O)[C@H](Cc1c[nH]c2ccccc12)NC(=O)[C@@H](N)CCCCN)C(=O)NCCC(N)=O	1460	52 (≈ 30.1 µM)	30.6 (≈ 17.7 µM)	23.3 (≈ 13.5 µM)	–
NCCCC[C@H](N)C(=O)N[C@@H](Cc1ccc(O)cc1)C(=O)NCCCC[C@H](NC(=O)[C@H](Cc1ccc(O)cc1)NC(=O)[C@@H](N)CCCCN)C(=O)NCCCC[C@H](NC(=O)[C@H](CCCCNC(=O)[C@H](Cc1ccc(O)cc1)NC(=O)[C@@H](N)CCCCN)NC(=O)[C@H](Cc1ccc(O)cc1)NC(=O)[C@@H](N)CCCCN)C(=O)NCCC(N)=O	3740	360 (≈ 220 µM)	84.4 (≈ 51.5 µM)	240 (≈ 147 µM)	–
N=C(NCCCCCCNC(=N)NC(=N)Nc1ccc(Cl)cc1)NC(=N)Nc1ccc(Cl)cc1 [CHLORHEXIDINE]	–	–	–	–	fold change (FC) [6]: 5; fold change (FC) [10]: 2.5
N=C(N)NCCC[C@H](NC(=O)[C@H](Cc1c[nH]c2ccccc12)NC(=O)[C@@H](N)CCCNC(=N)N)C(=O)N[C@@H](Cc1c[nH]c2ccccc12)C(=O)NCCCC[C@H](NC(=O)[C@H](Cc1c[nH]c2ccccc12)NC(=O)[C@H](CCCNC(=N)N)NC(=O)[C@H](Cc1c[nH]c2ccccc12)NC(=O)[C@@H](N)CCCNC(=N)N)C(=O)NCCCC[C@H](NC(=O)[C@H](CCCCNC(=O)[C@H](Cc1c[nH]c2ccccc12)NC(=O)[C@H](CCCNC(=N)N)NC(=O)[C@H](Cc1c[nH]c2ccccc12)NC(=O)[C@@H](N)CCCNC(=N)N)NC(=O)[C@H](Cc1c[nH]c2ccccc12)NC(=O)[C@H](CCCNC(=N)N)NC(=O)[C@H](Cc1c[nH]c2ccccc12)NC(=O)[C@@H](N)CCCNC(=N)N)C(=O)NCCC(N)=O (HELM PEPTIDE1{R.W.R.W.K.K.[bAla].[am]}|PEPTIDE2{R.W.R.W}|PEPTIDE3{R.W.R.W.K}|PEPTIDE4{R.W.R.W}$PEPTIDE1,PEPTIDE2,5:R3-4:R2|PEPTIDE3,PEPTIDE4,5:R3-4:R2|PEPTIDE1,PEPTIDE3,6:R3-5:R2$$$V2.0)	131	–	16.4 (≈ 5.11 µM)	23.6 (≈ 7.35 µM)	–
N=C(N)NCCC[C@H](N)C(=O)N[C@@H](Cc1ccccc1)C(=O)NCCCC[C@H](NC(=O)[C@H](Cc1ccccc1)NC(=O)[C@@H](N)CCCNC(=N)N)C(=O)NCCCC[C@H](NC(=O)[C@H](CCCCNC(=O)[C@H](Cc1ccccc1)NC(=O)[C@@H](N)CCCNC(=N)N)NC(=O)[C@H](Cc1ccccc1)NC(=O)[C@@H](N)CCCNC(=N)N)C(=O)NCCC(N)=O	2780	160 (≈ 94.9 µM)	30 (≈ 17.8 µM)	180 (≈ 107 µM)	–
NC(=O)CCNC(=O)[C@H](CCCCNC(=O)[C@H](CCCCNC(=O)[C@H](Cc1c[nH]c2ccccc12)NC(=O)[C@@H](N)Cc1cnc[nH]1)NC(=O)[C@H](Cc1c[nH]c2ccccc12)NC(=O)[C@@H](N)Cc1cnc[nH]1)NC(=O)[C@H](CCCCNC(=O)[C@H](Cc1c[nH]c2ccccc12)NC(=O)[C@@H](N)Cc1cnc[nH]1)NC(=O)[C@H](Cc1c[nH]c2ccccc12)NC(=O)[C@@H](N)Cc1cnc[nH]1	1860	82.7 (≈ 46.8 µM)	30.6 (≈ 17.3 µM)	43.3 (≈ 24.5 µM)	–
CN[C@H](CC(C)C)C(=O)N[C@H]1C(=O)N[C@@H](CC(N)=O)C(=O)N[C@H]2C(=O)N[C@H]3C(=O)N[C@H](C(=O)N[C@H](C(=O)O)c4cc(O)cc(O)c4-c4cc3ccc4O)[C@H](O)c3ccc(c(Cl)c3)Oc3cc2cc(c3O[C@@H]2O[C@H](CO)[C@@H](O)[C@H](O)[C@H]2O[C@H]2C[C@](C)(N)[C@H](O)[C@H](C)O2)Oc2ccc(cc2Cl)[C@H]1O [VANCOMYCIN]	–	–	–	–	fold change (FC) [10]: 2.5
N=C(N)NCCC[C@H](N)C(=O)N[C@@H](Cc1c[nH]c2ccccc12)C(=O)NCCCC[C@H](NC(=O)[C@H](Cc1c[nH]c2ccccc12)NC(=O)[C@@H](N)CCCNC(=N)N)C(=O)NCCCC[C@H](NC(=O)[C@H](CCCCNC(=O)[C@H](Cc1c[nH]c2ccccc12)NC(=O)[C@@H](N)CCCNC(=N)N)NC(=O)[C@H](Cc1c[nH]c2ccccc12)NC(=O)[C@@H](N)CCCNC(=N)N)C(=O)NCCC(N)=O (H-RWK([Trp-Arg])K(Lys(α,ε-(ArgTrp)2))[βAla]-NH2)	1960	42 (≈ 22.8 µM)	3.9 (≈ 2.12 µM)	15 (≈ 8.14 µM)	Ratio [11]: 10; growth inhibition (GI) [7]: Active; growth inhibition (GI) [8]: Active; Ratio [12]: 5; growth inhibition (GI) [9]: Active
N=C(N)NCCC[C@H](NC(=O)[C@H](Cc1c[nH]c2ccccc12)NC(=O)[C@H](CCCNC(=N)N)NC(=O)[C@H](Cc1c[nH]c2ccccc12)NC(=O)[C@@H](N)CCCNC(=N)N)C(=O)N[C@@H](Cc1c[nH]c2ccccc12)C(=O)NCCCC[C@H](NC(=O)[C@H](Cc1c[nH]c2ccccc12)NC(=O)[C@H](CCCNC(=N)N)NC(=O)[C@H](Cc1c[nH]c2ccccc12)NC(=O)[C@H](CCCNC(=N)N)NC(=O)[C@H](Cc1c[nH]c2ccccc12)NC(=O)[C@@H](N)CCCNC(=N)N)C(=O)NCCCC[C@H](NC(=O)[C@H](CCCCNC(=O)[C@H](Cc1c[nH]c2ccccc12)NC(=O)[C@H](CCCNC(=N)N)NC(=O)[C@H](Cc1c[nH]c2ccccc12)NC(=O)[C@H](CCCNC(=N)N)NC(=O)[C@H](Cc1c[nH]c2ccccc12)NC(=O)[C@@H](N)CCCNC(=N)N)NC(=O)[C@H](Cc1c[nH]c2ccccc12)NC(=O)[C@H](CCCNC(=N)N)NC(=O)[C@H](Cc1c[nH]c2ccccc12)NC(=O)[C@H](CCCNC(=N)N)NC(=O)[C@H](Cc1c[nH]c2ccccc12)NC(=O)[C@@H](N)CCCNC(=N)N)C(=O)NCCC(N)=O (HELM PEPTIDE1{R.W.R.W.R.W.K.K.[bAla].[am]}|PEPTIDE2{R.W.R.W.R.W.K}|PEPTIDE3{R.W.R.W.R.W}|PEPTIDE4{R.W.R.W.R.W}$PEPTIDE1,PEPTIDE4,7:R3-6:R2|PEPTIDE1,PEPTIDE2,8:R3-7:R2|PEPTIDE2,PEPTIDE3,7:R3-6:R2$$$V2.0)	365	–	20.8 (≈ 4.54 µM)	31.7 (≈ 6.92 µM)	–
CC[C@H](C)[C@H](NC(C)=O)C(=O)N[C@@H](CC(C)C)C(=O)N1CCC[C@H]1C(=O)N[C@@H](Cc1c[nH]c2ccccc12)C(=O)N[C@@H](CCCCN)C(=O)N[C@@H](Cc1c[nH]c2ccccc12)C(=O)N1CCC[C@H]1C(=O)N[C@@H](Cc1c[nH]c2ccccc12)C(=O)N[C@@H](Cc1c[nH]c2ccccc12)C(=O)N1CCC[C@H]1C(=O)N[C@@H](Cc1c[nH]c2ccccc12)C(=O)N[C@@H](CCCNC(=N)N)C(=O)N[C@@H](CCCNC(=N)N)C(N)=O	–	–	–	–	growth inhibition (GI) [7]: Active; growth inhibition (GI) [8]: Active; growth inhibition (GI) [9]: Active
